In article PMC5641952 (ACS Medicinal Chemistry Letters, 2017):

molecular target: MDM2 (Homo sapiens, UniProt Q00987); assay: Fluorescence polarization; details: FP assay

Row | activity toward MDM2 (in words) | Structure (SMILES)
1 | only slightly or not active at all | O=C(O)c1[nH]c2cc(Cl)ccc2c1C1C(=O)NCCCCCCCCCCCCCC(=O)N1Cc1ccc(F)cc1 (stereo not drawn) [1d]
2 | only slightly or not active at all | O=C(O)c1[nH]c2cc(Cl)ccc2c1C1C(=O)NCCCCCCCCCCCCCC(=O)N1Cc1ccc(Cl)cc1 (stereo not drawn) [1f]

Row | Structure (SMILES) | activity toward MDM2 (in words)
3 | CCOC(=O)c1[nH]c2cc(Cl)ccc2c1C1C(=O)NCCCCCCCCCCCCCCCCCCCC(=O)N1Cc1ccc(OCc2ccc(Cl)c(Cl)c2)cc1 (stereo not drawn) [2k] | orders of magnitude less reactive or inactive
